Measurements: patent US10851073B2, “Protein tyrosine phosphatase inhibitors and methods of use thereof” (Calico Life Sciences LLC, priority 2019, dated 2020)

Test system: B16F10 mouse melanoma cells
Assay: B16F10 IFNγ-induced cellular growth inhibition assay
Format: cell-based
Conditions: B16-F10, with 0.5 ng/mL IFNγ, read-out: B16F10 GI IC50
Protocol: Example 229: B16F10 IFNγ-Induced Cellular Growth Inhibition Assay B16F10 mouse melanoma cells (ATCC Cat^# CRL-6475, Manassas, Va.) were seeded at a density of 500 cells per well in a 384-well clear bottom plate (Corning Cat^#3765, Corning, N.Y.) in 25 μL total volume of DMEM+10% FBS (Sigma Cat^# D6429 and Sigma Cat^# F4135, St. Louis, Mo.). Cells were allowed to adhere overnight at 37° C.+5% CO2. On the following day, 12.5 μL of mouse IFNγ (RD systems Cat^#485-MI/CF, Minneapolis, Minn.) was added to half of the plate (columns 13-24) at a concentration of 2 ng/mL for a final assay concentration of 0.5 ng/mL of IFNγ. Media only (12.5 μL of DMEM+10% FBS) was added to the remainder of the plate (columns 1-12). Next, compounds resuspended in DMSO (Sigma Cat^# D2650) at 100 mM were diluted in semi-log dilutions in DMSO ranging from 100 mM to 0.001 mM and DMSO only controls were included. The compound/DMSO dilutions were further diluted 1:250 in DMEM+10% FBS, and 12.5 μL of these dilutions were added in triplicates to cells of both treatment arms (with and without IFNγ). Final compound concentrations ranged from 100 μM to 0.001 μM with a final DMSO concentration of 0.1%. Compounds were only dosed in the inner 240 wells, avoiding the outer 2-well perimeter of the plate to minim/ze edge effects. Finally, the plate was loaded into an IncuCyte® S3 Live Cell Analysis System (Essen Bioscience-Sartorius, Ann Arbor, Mich.) maintained in a 37° C.+5% CO2 incubator, allowed to equilibrate for 2 hours, and imaged every 6 hours for 5 days. Confluence over time for compound dilutions in the presence and absence of IFNγ was measured. Growth inhibition values were obtained when the “DMSO/no IFNγ” control reached confluence >95%. At these time points, for each compound the percent growth inhibition at every compound dose level was calculated relative to the “DMSO/with IFNγ” control and used to determine the IC50.

| SMILES | IC50 [µM] |
| --- | --- |
| O=C1CN(c2c(O)cc3c(c2F)CCCC3)S(=O)(=O)N1 [Compound 108, 5-(1-fluoro-3-hydroxy-5,6,7,8-tetrahydronaphthalen-2-yl)-1λ^6,2,5-thiadiazolidine-1,1,3-trione] | 10 to 100 |
| O=C1CN(c2c(O)cc3c(c2F)CCCO3)S(=O)(=O)N1 [Compound 111, 5-(5-fluoro-7-hydroxy-3,4-dihydro-2H-1-benzopyran-6-yl)-1λ^6,2,5-thiadiazolidine-1,1,3-trione] | 10 to 100 |
| CC1(C)CCc2c(cc(O)c(N3CC(=O)NS3(=O)=O)c2F)O1 [Compound 112, 5-(5-fluoro-7-hydroxy-2,2-dimethyl-3,4-dihydro-2H-1-benzopyran-6-yl)-1λ^6,2,5-thiadiazolidine-1,1,3-trione] | 10 to 100 |
| O=C1CN(c2c(O)cc3c(c2F)CNCC3)S(=O)(=O)N1 [Compound 143, 5-(8-fluoro-6-hydroxy-1,2,3,4-tetrahydroisoquinolin-7-yl)-1λ^6,2,5-thiadiazolidine-1,1,3-trione] | 1 to 10 |
| CC(C)CCCN1CCc2cc(O)c(N3CC(=O)NS3(=O)=O)c(F)c2C1 [Compound 145, 5-[8-fluoro-6-hydroxy-2-(4-methylpentyl)-1,2,3,4-tetrahydroisoquinolin-7-yl]-1λ^6,2,5-thiadiazolidine-1,1,3-trione] | 1 to 10 |
| O=C1CN(c2c(O)cc3c(c2F)CN(CCCCC(F)(F)F)CC3)S(=O)(=O)N1 [Compound 153, 5-[8-fluoro-6-hydroxy-2-(5,5,5-trifluoropentyl)-1,2,3,4-tetrahydroisoquinolin-7-yl]-1λ^6,2,5-thiadiazolidine-1,1,3-trione] | > 100 |
| O=C1CN(c2c(O)cc3c(c2F)CC(NCc2ccccn2)CC3)S(=O)(=O)N1 (stereo not shown) [Compound 155, 5-(1-fluoro-3-hydroxy-7-{[(pyridin-2-yl)methyl]amino}-5,6,7,8-tetrahydronaphthalen-2-yl)-1λ^6,2,5-thiadiazolidine-1,1,3-trione] | 10 to 100 |
| O=C1CN(c2c(O)cc3c(c2F)CN(CCCCCC(F)(F)F)CC3)S(=O)(=O)N1 [Compound 161, 5-[8-fluoro-6-hydroxy-2-(6,6,6-trifluorohexyl)-1,2,3,4-tetrahydroisoquinolin-7-yl]-1λ^6,2,5-thiadiazolidine-1,1,3-trione] | 10 to 100 |
| O=C1CN(c2c(O)cc3c(c2F)CN(CCC2CCCCC2)CC3)S(=O)(=O)N1 [Compound 179, 5-[2-(2-cyclohexylethyl)-8-fluoro-6-hydroxy-1,2,3,4-tetrahydroisoquinolin-7-yl]-1λ^6,2,5-thiadiazolidine-1,1,3-trione] | 1 to 10 |
| O=C1CN(c2c(O)cc3c(c2F)CN(Cc2ccccn2)CC3)S(=O)(=O)N1 [Compound 184, 5-{8-fluoro-6-hydroxy-2-[(pyridin-2-yl)methyl]-1,2,3,4-tetrahydroisoquinolin-7-yl}-1λ^6,2,5-thiadiazolidine-1,1,3-trione] | 10 to 100 |
| Cc1n[nH]c(C)c1CCN1CCc2cc(O)c(N3CC(=O)NS3(=O)=O)c(F)c2C1 [Compound 194, 5-{2-[2-(3,5-dimethyl-1H-pyrazol-4-yl)ethyl]-8-fluoro-6-hydroxy-1,2,3,4-tetrahydroisoquinolin-7-yl}-1λ^6,2,5-thiadiazolidine-1,1,3-trione] | 1 to 10 |
| O=C1CN(c2c(O)cc3c(c2F)CN(CCCC2CCOCC2)CC3)S(=O)(=O)N1 [Compound 196, 5-{8-fluoro-6-hydroxy-2-[3-(oxan-4-yl)propyl]-1,2,3,4-tetrahydroisoquinolin-7-yl}-1λ^6,2,5-thiadiazolidine-1,1,3-trione] | 1 to 10 |
| O=C1CN(c2c(O)cc3c(c2F)C[C@H](NCCC2CC(F)(F)C2)CC3)S(=O)(=O)N1 [Compound 202, 5-[(7R)-7-{[2-(3,3-difluorocyclobutyl)ethyl]amino}-1-fluoro-3-hydroxy-5,6,7,8-tetrahydronaphthalen-2-yl]-1λ^6,2,5-thiadiazolidine-1,1,3-trione] | < 1 |
| CC(C)CCNC(=O)N1CCc2cc(O)c(N3CC(=O)NS3(=O)=O)c(F)c2C1 [Compound 205, 8-fluoro-6-hydroxy-N-(3-methylbutyl)-7-(1,1,4-trioxo-1λ^6,2,5-thiadiazolidin-2-yl)-3,4-dihydroisoquinoline-2(1H)-carboxamide] | 1 to 10 |
| CC(C)CNC(=O)N1CCc2cc(O)c(N3CC(=O)NS3(=O)=O)c(F)c2C1 [Compound 206, 8-fluoro-6-hydroxy-N-(2-methylpropyl)-7-(1,1,4-trioxo-1λ^6,2,5-thiadiazolidin-2-yl)-3,4-dihydroisoquinoline-2(1H)-carboxamide] | 1 to 10 |
| Cc1noc(C)c1CN1CCc2cc(O)c(N3CC(=O)NS3(=O)=O)c(F)c2C1 [Compound 208, 5-{2-[(3,5-dimethyl-1,2-oxazol-4-yl)methyl]-8-fluoro-6-hydroxy-1,2,3,4-tetrahydroisoquinolin-7-yl}-1λ^6,2,5-thiadiazolidine-1,1,3-trione] | 10 to 100 |
| Cc1nn(C)c(C)c1CCN1CCc2cc(O)c(N3CC(=O)NS3(=O)=O)c(F)c2C1 [Compound 209, 5-{8-fluoro-6-hydroxy-2-[2-(1,3,5-trimethyl-1H-pyrazol-4-yl)ethyl]-1,2,3,4-tetrahydroisoquinolin-7-yl}-1λ^6,2,5-thiadiazolidine-1,1,3-trione] | 1 to 10 |
| Cc1noc(C)c1CCN1CCc2cc(O)c(N3CC(=O)NS3(=O)=O)c(F)c2C1 [Compound 211, 5-{2-[2-(3,5-dimethyl-1,2-oxazol-4-yl)ethyl]-8-fluoro-6-hydroxy-1,2,3,4-tetrahydroisoquinolin-7-yl}-1λ^6,2,5-thiadiazolidine-1,1,3-trione] | < 1 |
| O=C1CN(c2c(O)cc3c(c2F)CN(CCC2CCOCC2)CC3)S(=O)(=O)N1 [Compound 214, 5-{8-fluoro-6-hydroxy-2-[2-(oxan-4-yl)ethyl]-1,2,3,4-tetrahydroisoquinolin-7-yl}-1λ^6,2,5-thiadiazolidine-1,1,3-trione] | 1 to 10 |
| COCCCN1CCc2cc(O)c(N3CC(=O)NS3(=O)=O)c(F)c2C1 [Compound 217, 5-[8-fluoro-6-hydroxy-2-(3-methoxypropyl)-1,2,3,4-tetrahydroisoquinolin-7-yl]-1λ^6,2,5-thiadiazolidine-1,1,3-trione] | 1 to 10 |
| NCCCN1CCc2cc(O)c(N3CC(=O)NS3(=O)=O)c(F)c2C1 [Compound 218, 5-[2-(3-aminopropyl)-8-fluoro-6-hydroxy-1,2,3,4-tetrahydroisoquinolin-7-yl]-1λ^6,2,5-thiadiazolidine-1,1,3-trione] | 10 to 100 |
| CC(C)(C)OC(=O)N1CCc2cc(O)c(N3CC(=O)NS3(=O)=O)c(F)c2C1 [Compound 221, tert-butyl 8-fluoro-6-hydroxy-7-(1,1,4-trioxo-1λ^6,2,5-thiadiazolidin-2-yl)-3,4-dihydroisoquinoline-2(1H)-carboxylate] | 1 to 10 |
| O=C1CN(c2c(O)cc3c(c2F)CN(CCCN2CCOCC2)CC3)S(=O)(=O)N1 [Compound 229, 5-{8-fluoro-6-hydroxy-2-[3-(morpholin-4-yl)propyl]-1,2,3,4-tetrahydroisoquinolin-7-yl}-1λ^6,2,5-thiadiazolidine-1,1,3-trione] | 1 to 10 |
| O=C1CN(c2c(O)cc3c(c2F)CN(CC[C@H]2C[C@@H](OC(F)(F)F)C2)CC3)S(=O)(=O)N1 [Compound 231, 5-(8-fluoro-6-hydroxy-2-{2-[(1s,3r)-3-(trifluoromethoxy)cyclobutyl]ethyl}-1,2,3,4-tetrahydroisoquinolin-7-yl)-1λ^6,2,5-thiadiazolidine-1,1,3-trione] | 1 to 10 |
| Cc1nn(C(F)F)c(C)c1CCN1CCc2cc(O)c(N3CC(=O)NS3(=O)=O)c(F)c2C1 [Compound 238, 5-(2-{2-[1-(difluoromethyl)-3,5-dimethyl-1H-pyrazol-4-yl]ethyl}-8-fluoro-6-hydroxy-1,2,3,4-tetrahydroisoquinolin-7-yl)-1λ^6,2,5-thiadiazolidine-1,1,3-trione] | 1 to 10 |
| O=C1CN(c2c(O)cc3c(c2F)CN(CCC2(C(F)(F)F)CC2)CC3)S(=O)(=O)N1 [Compound 243, 5-(8-fluoro-6-hydroxy-2-{2-[1-(trifluoromethyl)cyclopropyl]ethyl}-1,2,3,4-tetrahydroisoquinolin-7-yl)-1λ^6,2,5-thiadiazolidine-1,1,3-trione] | 1 to 10 |
| C[C@H](N)CN1CCc2cc(O)c(N3CC(=O)NS3(=O)=O)c(F)c2C1 [Compound 245, 5-{2-[(2S)-2-aminopropyl]-8-fluoro-6-hydroxy-1,2,3,4-tetrahydroisoquinolin-7-yl}-1λ^6,2,5-thiadiazolidine-1,1,3-trione] | 1 to 10 |
| O=C1CN(c2c(O)cc3c(c2F)CN(CCN2CCNCC2)CC3)S(=O)(=O)N1 [Compound 247, 5-{8-fluoro-6-hydroxy-2-[2-(piperazin-1-yl)ethyl]-1,2,3,4-tetrahydroisoquinolin-7-yl}-1λ^6,2,5-thiadiazolidine-1,1,3-trione] | 10 to 100 |
